Activity calls are given as the source filed them. The calls are words filed in the database; no cut-off is given here.
Columns and labels:
[1] = target: Cholinesterase (Equus caballus) (UniProt P81908); assay: Inhibition of equine serum BChE using butyrylthiocholine iodide as substrate at 10 uM preincubated for 10 mins followed by substrate addition by Ellman's method relative to control
[2] = Neurotoxicity against human SH-SY5Y cells assessed as reduction in cell viability at <= 50 uM; format: toxicity, cell-based
[3] = target: T1, Acetylcholinesterase (Electrophorus electricus, UniProt O42275)
T1 sequence (O42275 whole entry): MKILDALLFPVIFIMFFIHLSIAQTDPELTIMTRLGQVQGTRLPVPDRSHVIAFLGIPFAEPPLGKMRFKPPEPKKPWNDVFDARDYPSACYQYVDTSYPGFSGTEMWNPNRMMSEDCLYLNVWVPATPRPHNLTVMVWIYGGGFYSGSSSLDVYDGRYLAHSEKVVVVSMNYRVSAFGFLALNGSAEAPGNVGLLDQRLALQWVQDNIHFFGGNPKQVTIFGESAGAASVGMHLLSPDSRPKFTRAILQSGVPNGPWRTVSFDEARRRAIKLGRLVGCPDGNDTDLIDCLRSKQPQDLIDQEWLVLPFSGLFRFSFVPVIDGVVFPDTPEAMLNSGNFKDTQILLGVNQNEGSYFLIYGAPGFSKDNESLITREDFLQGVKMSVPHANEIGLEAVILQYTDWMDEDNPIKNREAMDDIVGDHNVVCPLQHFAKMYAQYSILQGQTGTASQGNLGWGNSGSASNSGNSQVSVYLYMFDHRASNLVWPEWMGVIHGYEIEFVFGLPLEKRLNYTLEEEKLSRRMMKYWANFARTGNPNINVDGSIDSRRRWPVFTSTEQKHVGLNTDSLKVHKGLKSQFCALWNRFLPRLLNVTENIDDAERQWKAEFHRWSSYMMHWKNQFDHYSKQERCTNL
Description: Inhibition of electric eel AChE using acetylthiocholine iodide as substrate preincubated for 10 mins followed by substrate addition by Ellman's method

[4] = target: T2, Cholinesterase (Equus caballus, UniProt P81908)
T2 sequence (P81908 whole entry): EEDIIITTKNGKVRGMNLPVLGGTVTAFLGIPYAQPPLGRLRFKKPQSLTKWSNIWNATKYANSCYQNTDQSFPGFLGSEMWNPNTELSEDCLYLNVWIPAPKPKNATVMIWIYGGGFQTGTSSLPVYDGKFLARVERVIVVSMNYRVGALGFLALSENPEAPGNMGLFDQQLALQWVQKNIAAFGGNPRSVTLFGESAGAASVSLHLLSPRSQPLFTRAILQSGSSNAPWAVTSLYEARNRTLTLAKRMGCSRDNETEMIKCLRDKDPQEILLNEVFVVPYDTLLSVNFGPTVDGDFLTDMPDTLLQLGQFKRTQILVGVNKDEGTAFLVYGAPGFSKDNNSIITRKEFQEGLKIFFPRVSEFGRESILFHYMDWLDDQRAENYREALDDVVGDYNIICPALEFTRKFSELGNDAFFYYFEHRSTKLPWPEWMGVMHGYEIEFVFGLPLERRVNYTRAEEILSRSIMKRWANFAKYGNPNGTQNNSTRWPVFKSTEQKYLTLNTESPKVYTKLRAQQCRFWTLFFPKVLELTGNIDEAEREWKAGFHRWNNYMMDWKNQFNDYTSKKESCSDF
Description: Inhibition of equine serum BChE using butyrylthiocholine iodide as substrate preincubated for 10 mins followed by substrate addition by Ellman's method

[5] = Antioxidant activity of the compound assessed as DPPH radical scavenging activity at 100 uM incubated under light for 30 mins by spectrophotometric analysis relative to control; format: functional
[6] = target: T2, Cholinesterase; assay: Non-competitive inhibition of equine serum BChE using butyrylthiocholine iodide as substrate preincubated for 10 mins followed by substrate addition by Lineweaver-Burk plot analysis
[7] = target: T1, Acetylcholinesterase; assay: Non-competitive inhibition of electric eel AChE using acetylthiocholine iodide as substrate preincubated for 10 mins followed by substrate addition by Lineweaver-Burk plot analysis
[8] = target: Cholinesterase (Equus caballus) (UniProt P81908); assay: Mixed-type inhibition of equine serum BChE using butyrylthiocholine iodide as substrate assessed as decrease in Vmax with increase in Km preincubated for 10 mins followed by substrate addition by Lineweaver-Burk plot analysis
[9] = target: Acetylcholinesterase (Electrophorus electricus) (UniProt O42275); assay: Mixed-type inhibition of electric eel AchE using acetylthiocholine iodide as substrate assessed as decrease in Vmax with increase in Km preincubated for 10 mins followed by substrate addition by Lineweaver-Burk plot analysis
Acetylcholinesterase (Electrophorus electricus), sequence (O42275 24-633 limits assumed): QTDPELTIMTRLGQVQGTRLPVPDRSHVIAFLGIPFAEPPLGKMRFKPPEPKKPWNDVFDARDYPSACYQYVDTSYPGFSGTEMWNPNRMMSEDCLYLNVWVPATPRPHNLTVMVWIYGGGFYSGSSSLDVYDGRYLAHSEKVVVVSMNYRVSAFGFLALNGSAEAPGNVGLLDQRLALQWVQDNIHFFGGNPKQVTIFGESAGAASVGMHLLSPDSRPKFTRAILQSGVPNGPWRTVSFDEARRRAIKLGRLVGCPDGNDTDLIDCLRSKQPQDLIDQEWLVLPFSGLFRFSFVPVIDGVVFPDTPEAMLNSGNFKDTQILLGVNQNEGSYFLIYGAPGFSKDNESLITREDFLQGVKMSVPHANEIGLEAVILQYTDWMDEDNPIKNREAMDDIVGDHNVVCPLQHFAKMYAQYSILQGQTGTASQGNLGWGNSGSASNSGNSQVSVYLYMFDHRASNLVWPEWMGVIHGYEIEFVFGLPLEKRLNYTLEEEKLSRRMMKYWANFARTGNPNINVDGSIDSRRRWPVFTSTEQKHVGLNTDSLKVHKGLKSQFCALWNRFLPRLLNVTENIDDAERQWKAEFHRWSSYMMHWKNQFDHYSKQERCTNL

[10] = target: T2, Cholinesterase; assay: Competitive inhibition of equine serum BChE using butyrylthiocholine iodide as substrate at 3 uM preincubated for 10 mins followed by substrate addition by Lineweaver-Burk plot analysis
[11] = target: T1, Acetylcholinesterase; assay: Competitive inhibition of electric eel AChE using acetylthiocholine iodide as substrate at 11 uM preincubated for 10 mins followed by substrate addition by Lineweaver-Burk plot analysis
[12] = in vitro; conditions: human
Description: Neurotoxicity against human SH-SY5Y cells assessed as cell viability at 50 uM relative to control

[13] = target: Acetylcholinesterase (Electrophorus electricus) (UniProt O42275); assay: Inhibition of electric eel AChE using acetylthiocholine iodide as substrate at 10 uM preincubated for 10 mins followed by substrate addition by Ellman's method relative to control
[14] = target: T2, Cholinesterase; assay: Competitive inhibition of equine serum BChE using butyrylthiocholine iodide as substrate preincubated for 10 mins followed by substrate addition by Lineweaver-Burk plot analysis
[15] = target: Acetylcholinesterase (Electrophorus electricus) (UniProt O42275); assay: Non-competitive inhibition of electric eel AChE using acetylthiocholine iodide as substrate assessed as decreased Vmax with constant Km by Ellman's method based Lineweaver-Burk plot analysis
[16] = Neurotoxicity against human SH-SY5Y cells assessed as cell viability at 12.5 to 50 uM relative to control; format: toxicity, cell-based; conditions: dose 12.5-50 µM, read-out: Activity
[17] = Antioxidant activity of the compound assessed as DPPH radical scavenging activity at 10 uM incubated under light for 30 mins by spectrophotometric analysis relative to control; format: functional
[18] = test system: Mus musculus; assay: Antialzheimer activity against scopolamine-induced amnesia Swiss mouse model assessed as number of crossings at 1 uM, icv by open field test; format: functional, organism-based
[19] = test system: SH-SY5Y; assay: Neuroprotective activity against H2O2-induced cell death in human SH-SY5Y cells assessed as cell viability at 3.125 to 12.5 uM preincubated for 24 hrs followed by H2O2 addition and measured after 2 hrs by MTT assay; format: functional, cell-based; conditions: dose 3.125-12.5 µM, time 26.0 hrs
[20] = test system: Mus musculus; assay: Antialzheimer activity against scopolamine-induced amnesia Swiss mouse model assessed as sign of innate preference for objects at 1 uM, icv by novel object recognition test; format: functional, organism-based
[21] = Toxicity in Swiss mouse assessed as novel […] memory at 1 uM, icv by novel object recognition test; conditions: in vivo, icv_or_intrathecal
[22] = test system: Mus musculus; assay: Antialzheimer activity against scopolamine-induced amnesia Swiss mouse model assessed as increase in exploration time at 1 uM, icv by novel object recognition test; format: functional, organism-based

Cholinesterase (Equus caballus), sequence (P81908 whole entry): as the sequence (P81908 whole entry) above

Compound: COc1ccc(/C=N/NC(=S)Nc2c3ccccc3nc3ccccc23)cc1
- inhibition [1]: 83%
- Activity [2]: Non-toxic
- IC50 [3]: 6.2 µM
- IC50 [4]: 1.04 µM

Compound: CN(C)c1ccc(/C=N/NC(=S)Nc2c3ccccc3nc3ccccc23)cc1
- inhibition [1]: 83%
- IC50 [3]: 7.6 µM
- IC50 [4]: 1.77 µM

Compound: Cc1[nH]c2ccccc2c1/C=N/NC(=S)Nc1c2ccccc2nc2ccccc12
- inhibition [1]: 83%
- IC50 [3]: 8.57 µM
- Activity [5]: 61%
- IC50 [4]: 2.01 µM

Compound: S=C(N/N=C/c1ccc(Cl)cc1Cl)Nc1c2ccccc2nc2ccccc12
- inhibition [1]: 83%
- Activity [2]: Non-toxic
- IC50 [3]: 6.11 µM
- IC50 [4]: 1.06 µM

Compound: S=C(N/N=C/c1ccccc1)Nc1c2c(nc3ccccc13)CCCC2
- Ki [6]: 3.63 µM
- Ki [7]: 9.82 µM
- IC50 [3]: 13.6 µM
- Activity [5]: 32.2%
- IC50 [4]: 5.38 µM
- Activity [8]: Active
- Activity [9]: Active
- Ki [10]: 1.41 µM
- Ki [11]: 1.66 µM

Compound: COc1cc2c(cc1OC)C(=O)C(CC1CCN(Cc3ccccc3)CC1)C2 (stereo not drawn) [DONEPEZIL]
- viability at 50 µM ([12]; sh-sy5y): 80%

Compound: S=C(N/N=C/c1ccco1)Nc1c2ccccc2nc2ccccc12
- inhibition [1]: 83%
- IC50 [3]: 28 µM
- Activity [5]: 43.9%
- IC50 [4]: 4.4 µM

Compound: Oc1ccc(/C=N/NC(=S)Nc2c3ccccc3nc3ccccc23)cc1
- inhibition [1]: 83%
- IC50 [3]: 11.5 µM
- IC50 [4]: 1.73 µM

Compound: Cc1ccc(/C=N/NC(=S)Nc2c3ccccc3nc3ccccc23)c(O)c1
- inhibition [1]: 83%
- IC50 [3]: 11.3 µM
- Activity [5]: 28.7%
- IC50 [4]: 3.19 µM

Compound: Oc1cccc(/C=N/NC(=S)Nc2c3ccccc3nc3ccccc23)c1
- inhibition [1]: 83%
- IC50 [3]: 22 µM
- IC50 [4]: 2.28 µM

Compound: Oc1ccccc1/C=N/NC(=S)Nc1c2ccccc2nc2ccccc12
- inhibition [1]: 83%
- IC50 [3]: 10.8 µM
- Activity [5]: 15.8%
- IC50 [4]: 3.13 µM

Compound: S=C(N/N=C/c1ccccc1)Nc1c2ccccc2nc2ccccc12
- inhibition [13]: 87%
- inhibition [1]: 83%
- Ki [14]: 0.72 µM
- Ki [6]: 1.68 µM
- Ki [7]: 1.35 µM
- Activity [2]: Non-toxic
- IC50 [3]: 2.47 µM
- Activity [5]: 37.9%
- IC50 [4]: 0.71 µM
- inhibition [15]: Active

Compound: S=C(N/N=C/c1cccs1)Nc1c2ccccc2nc2ccccc12
- inhibition [1]: 83%
- IC50 [3]: 34.6 µM
- Activity [5]: 41.5%
- IC50 [4]: 2.45 µM

Compound: Fc1ccc(/C=N/NC(=S)Nc2c3ccccc3nc3ccccc23)cc1
- inhibition [1]: 83%
- viability at 50 µM [16]: ≤ 70%
- IC50 [3]: 12.8 µM
- Activity [5]: 44.3%
- IC50 [4]: 1.35 µM

Compound: O=c1c(O)c(-c2ccc(O)c(O)c2)oc2cc(O)cc(O)c12
- Activity [17]: 51.7%

Compound: S=C(N/N=C/c1ccc(Br)cc1)Nc1c2ccccc2nc2ccccc12
- inhibition [1]: 83%
- IC50 [3]: 9.79 µM
- IC50 [4]: 3.18 µM

Compound: S=C(N/N=C/c1cccnc1)Nc1c2ccccc2nc2ccccc12
- inhibition [1]: 83%
- Activity [5]: 15.5%

Compound: Cc1ccc(/C=N/NC(=S)Nc2c3ccccc3nc3ccccc23)cc1
- inhibition [1]: 83%
- IC50 [3]: 2.78 µM
- IC50 [4]: 1.54 µM

Compound: S=C(N/N=C/c1ccc(Cl)cc1)Nc1c2ccccc2nc2ccccc12
- inhibition [1]: 83%
- IC50 [3]: 10.1 µM
- IC50 [4]: 2.19 µM

Compound: COc1ccc(/C=N/NC(=S)Nc2c3ccccc3nc3ccccc23)cc1O
- inhibition [1]: 83%
- IC50 [3]: 43.3 µM
- Activity [5]: 41.2%
- IC50 [4]: 3.3 µM

Compound: CC(C)(C)c1cc(/C=N/NC(=S)Nc2c3ccccc3nc3ccccc23)cc(C(C)(C)C)c1O
- inhibition [1]: 83%
- Activity [18]: inactive
- Activity [19]: Active
- Activity [20]: inactive
- viability at 50 µM [16]: ≤ 70%
- Activity [21]: Toxic
- Activity [22]: Active
- IC50 [3]: 10.5 µM
- Activity [5]: 69%
- IC50 [4]: 1.15 µM
- viability at 50 µM ([12]; SH-SY5Y cells): 90%

Compound: Oc1cccc(/C=N/NC(=S)Nc2c3c(nc4ccccc24)CCCC3)c1
- Activity [5]: 12.1%
- IC50 [4]: 3.03 µM

Compound: S=C(N/N=C/c1c[nH]c2ccccc12)Nc1c2ccccc2nc2ccccc12
- inhibition [1]: 83%
- IC50 [3]: 9.39 µM
- Activity [5]: 23.8%
- IC50 [4]: 1.68 µM

Compound: O=[N+]([O-])c1ccc(/C=N/NC(=S)Nc2c3ccccc3nc3ccccc23)cc1
- inhibition [1]: 83%
- Ki [14]: 0.2 µM
- Ki [6]: 0.53 µM
- Ki [7]: 2.97 µM
- Activity [2]: Non-toxic
- IC50 [3]: 8.64 µM
- IC50 [4]: 0.89 µM
- inhibition [15]: Active
